The target of one assay is T1, Rat SERT (Rattus norvegicus, UniProt P31652).
T1 construct: A rat brain without cerebellum (Zivic Laboratories, Inc.—Pittsburgh, Pa.) was homogenized; tissue Zivic Laboratories, Inc; host or cells: rat brain without cerebellum, membrane preparation
Kind of assay: Rat brain SERT [3H]-citalopram binding. Conditions: rat brain membranes, 0.6 nM [3H]-Citalopram, 60 min at 25° C. On the procedure:
The supernatant was removed and re-centrifuged at 15,000 rpm for 30 min. […] Membranes were incubated with 0.6 nM [^3H]-Citalopram plus/minus test compounds for 60 min at 25° C. and harvested by rapid filtration over GF/C glass fiber filters (pretreated with 0.3% polyethylenimine) followed by four washes with ice-cold buffer.

In another assay the target is T2, human SERT (Homo sapiens, UniProt P31645).
T2 construct: expressed in transfected cells; host or cells: HEK293 membranes
The experiment in a line: Human SERT 3H-citalopram binding. The following applies: HEK293 membranes expressing the human SERT, rt 1 h. The procedure:
Homogenized HEK293 (Human Embryonic Kidney) membranes expressing the human SERT were incubated with ^3H-citalopram (SERT) at rt for 1 h in 50 mM Tris, 120 mM NaCl, 5 mM KCl (pH 7.4). […] The membranes were washed and the radioactivity was counted as above.

Assay [1] addresses T3, human H3 receptor (Homo sapiens, UniProt Q9Y5N1).
T3 construct: expressed in transfected cells
Kind of assay: H3 receptor binding. Conditions: cloned human H3 receptor stably expressed in SK-N-MC cells.

In assay [2] the target is T3, human H3 receptor. Kind of assay: Cyclic AMP accumulation (β-galactosidase reporter). The format is cell-based. On the procedure:
Sublines of SK—N-MC cells were created that expressed a reporter construct and the human H3 receptor. The reporter gene (β-galactosidase) is under the control of multiple cyclic AMP responsive elements. In 96-well plates, histamine was added directly to the cell media followed 5 min later by an addition of forskolin (5 μM final concentration). When appropriate, antagonists were added 10 min prior to agonist addition. After a 6-h incubation at 37° C., the media was aspirated and the cells washed with 200 μL of phosphate-buffered saline followed by a second aspiration. Cells were lysed with 25 μL 0.1× assay buffer (10 mM Na-phosphate, pH 8, 0.2 mM MgSO4, 0.01 mM MnCl2) and incubated at rt for 10 min. […] Color was developed using 25 μL of 1 mg/mL substrate solution (chlorophenolred β-D galactopyranoside; Roche Molecular Biochemicals, Indianapolis, Ind.).

T1 sequence (P31652 whole entry): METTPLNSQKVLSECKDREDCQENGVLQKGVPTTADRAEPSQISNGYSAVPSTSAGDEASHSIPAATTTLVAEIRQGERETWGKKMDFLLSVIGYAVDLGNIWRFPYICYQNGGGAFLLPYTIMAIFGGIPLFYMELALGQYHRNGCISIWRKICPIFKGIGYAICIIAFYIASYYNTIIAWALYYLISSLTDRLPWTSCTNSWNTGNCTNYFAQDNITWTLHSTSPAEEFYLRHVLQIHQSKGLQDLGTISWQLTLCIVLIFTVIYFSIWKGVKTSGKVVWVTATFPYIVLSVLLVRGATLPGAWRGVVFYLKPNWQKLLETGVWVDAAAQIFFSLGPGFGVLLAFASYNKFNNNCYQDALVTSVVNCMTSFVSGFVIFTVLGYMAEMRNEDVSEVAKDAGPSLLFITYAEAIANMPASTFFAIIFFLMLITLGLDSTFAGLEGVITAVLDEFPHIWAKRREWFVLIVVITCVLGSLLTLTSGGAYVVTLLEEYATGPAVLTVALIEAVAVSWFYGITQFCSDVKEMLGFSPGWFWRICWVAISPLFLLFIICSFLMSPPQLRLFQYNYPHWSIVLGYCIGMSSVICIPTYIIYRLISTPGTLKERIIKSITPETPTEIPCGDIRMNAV
T2 sequence (P31645 whole entry): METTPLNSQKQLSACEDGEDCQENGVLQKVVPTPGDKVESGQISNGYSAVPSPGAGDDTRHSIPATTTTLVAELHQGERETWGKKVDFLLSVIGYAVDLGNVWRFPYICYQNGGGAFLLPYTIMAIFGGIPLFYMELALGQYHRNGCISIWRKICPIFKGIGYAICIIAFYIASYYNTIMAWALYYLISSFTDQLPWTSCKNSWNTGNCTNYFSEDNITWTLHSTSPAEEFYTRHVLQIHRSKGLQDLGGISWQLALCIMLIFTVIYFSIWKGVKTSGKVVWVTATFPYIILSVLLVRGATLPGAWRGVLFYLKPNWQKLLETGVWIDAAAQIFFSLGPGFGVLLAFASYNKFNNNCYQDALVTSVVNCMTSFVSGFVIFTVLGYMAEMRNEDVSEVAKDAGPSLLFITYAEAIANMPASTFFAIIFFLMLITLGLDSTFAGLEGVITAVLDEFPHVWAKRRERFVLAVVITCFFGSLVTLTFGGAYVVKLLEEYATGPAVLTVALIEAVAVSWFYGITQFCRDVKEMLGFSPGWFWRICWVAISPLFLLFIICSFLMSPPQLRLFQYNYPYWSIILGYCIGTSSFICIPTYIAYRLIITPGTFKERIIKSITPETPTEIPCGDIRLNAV
T3 sequence (Q9Y5N1 whole entry): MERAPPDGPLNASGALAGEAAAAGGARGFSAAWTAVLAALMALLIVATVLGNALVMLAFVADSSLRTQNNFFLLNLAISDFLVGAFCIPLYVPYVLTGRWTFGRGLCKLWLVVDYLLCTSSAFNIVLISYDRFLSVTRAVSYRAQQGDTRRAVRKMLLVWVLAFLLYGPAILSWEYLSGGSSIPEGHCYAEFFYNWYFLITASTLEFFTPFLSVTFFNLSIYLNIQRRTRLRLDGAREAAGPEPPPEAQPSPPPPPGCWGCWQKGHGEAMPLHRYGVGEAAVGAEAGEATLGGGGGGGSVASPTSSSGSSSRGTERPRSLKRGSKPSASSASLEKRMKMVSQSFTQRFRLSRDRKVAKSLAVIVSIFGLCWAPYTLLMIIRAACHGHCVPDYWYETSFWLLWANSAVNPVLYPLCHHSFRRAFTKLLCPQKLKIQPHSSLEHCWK

For `CNCc1cc(C#CCCN2CCOCC2)ccc1Oc1ccc(Cl)c(Cl)c1` [Example 1, [2-(3,4-Dichloro-phenoxy)-5-(4-morpholin-4-yl-but-1-ynyl)-benzyl]-methyl-amine], the Ki at Rat SERT is 2.4 nM; at human SERT it was 1.8 nM; on human H3 receptor [1], 11 nM.
As for `CNCc1cc(C#CCCN2CCC(F)CC2)ccc1Oc1ccc(SC)cc1` [Example 11, [5-[4-(4-Fluoro-piperidin-1-yl)-but-1-ynyl]-2-(4-methylsulfanyl-phenoxy)-benzyl]-methyl-amine], the Ki on Rat SERT was 0.6 nM; at human SERT it was 0.9 nM; on human H3 receptor [1], 6 nM. Also, the pA2 at human H3 receptor [2] (SK-N-MC cells expressing human H3 receptor and reporter, histamine agonist, forskolin 5 μM, Schild regression of pEC50 values) was 8.12.
For `CNCc1cc(CCCCN2CCN(C(C)C)CC2)ccc1Oc1ccc(SC)cc1` [Example 33, [5-[4-(4-Isopropyl-piperazin-1-yl)-butyl]-2-(4-methylsulfanyl-phenoxy)-benzyl]-methyl-amine], the Ki is 0.4 nM at Rat SERT, 1.4 nM at human SERT and 5.2 nM at human H3 receptor [1].
Take `CNCc1cc(C#CCCN2CCOCC2)ccc1Sc1cc(C(F)(F)F)ccn1` [Example 36, Methyl-[5-(4-morpholin-4-yl-but-1-ynyl)-2-(4-trifluoromethyl-pyridin-2-ylsulfanyl)-benzyl]-amine]: the Ki at Rat SERT is 32 nM; on human H3 receptor [1], 190 nM.
Turning to `CNCc1cc(C#CCCN2CCSCC2)ccc1Oc1ccc(SC)cc1` [Example 9, Methyl-[2-(4-methylsulfanyl-phenoxy)-5-(4-thiomorpholin-4-yl-but-1-ynyl)-benzyl]-amine], the Ki on Rat SERT was determined as 0.9 nM; at human SERT it was 2.5 nM; on human H3 receptor [1], 5.4 nM.
With `CNCc1cc(C#CCCN2CCSCC2)ccc1Oc1ccc(Cl)c(Cl)c1` [Example 26, [2-(3,4-Dichloro-phenoxy)-5-(4-thiomorpholin-4-yl-but-1-ynyl)-benzyl]-methyl-amine], the Ki at Rat SERT came out at 5.7 nM; at human SERT, 6.7 nM; on human H3 receptor [1], 13 nM.
Turning to `CNCc1cc(C#CCCN2CCOCC2)ccc1Oc1ccccn1` [Example 30, Methyl-[5-(4-morpholin-4-yl-but-1-ynyl)-2-(pyridine-2-yloxy)-benzyl]-amine], the inhibition constant Ki at Rat SERT turned out to be 200 nM; on human H3 receptor [1], 6 nM. Moreover, on human H3 receptor [2] (read-out: pA2 (converted)), the Kb is 3.16 nM.
Consider `CNCc1ccc(C#CCCN2CCOCC2)cc1Oc1ccc(SC)cc1` [Example 37, Methyl-[2-(4-methylsulfanyl-phenoxy)-4-(4-morpholin-4-yl-but-1-ynyl)-benzyl]-amine], for which the values for the Ki at Rat SERT, on human SERT and on human H3 receptor [1] were 1.8 nM, 3.4 nM and 423 nM, respectively.
Consider `CNCc1cc(C#CCCN2CCOCC2)ccc1Oc1ccccc1` [Example 6, Methyl-[5-(4-morpholin-4-yl-but-1-ynyl)-2-phenoxy-benzyl]-amine], for which the Ki on Rat SERT was 11 nM; at human SERT, 30 nM.
`CNCc1cc(C#CCCNC2CC2)ccc1Oc1ccc(SC)cc1` [Example 14, Cyclopropyl-{4-[3-methylaminomethyl-4-(4-methylsulfanyl-phenoxy)-phenyl]-but-3-ynyl}-amine]: the inhibition constant Ki on Rat SERT turned out to be 0.3 nM; at human SERT it was 12 nM; on human H3 receptor [1] it was 17 nM.
On to `CNCc1cc(C#CCCN2CCNC(=O)C2)ccc1Oc1ccc(SC)cc1` [Example 19, 4-{4-[3-Methylaminomethyl-4-(4-methylsulfanyl-phenoxy)-phenyl]-but-3-ynyl}-piperazin-2-one], for which the inhibitory constant (Ki) at Rat SERT turned out to be 0.4 nM; at human SERT it was 1.6 nM; at human H3 receptor [1], 864 nM.
As for `CNCc1cc(C#CCCN2CCN(C(C)C)C(=O)C2)ccc1Oc1ccc(SC)cc1` [Example 25, 1-Isopropyl-4-{4-[3-methylaminomethyl-4-(4-methylsulfanyl-phenoxy)-phenyl]-but-3-ynyl}-piperazin-2-one], the inhibition constant Ki is 1 nM at Rat SERT, 1.2 nM on human SERT and 1870 nM on human H3 receptor [1].
Turning to `CNCc1cc(C#CCCN2CCC(F)CC2)ccc1Oc1ccc(Cl)c(Cl)c1` [Example 29, {2-(3,4-Dichloro-phenoxy)-5-[4-(4-fluoro-piperidin-1-yl)-but-1-ynyl]-benzyl}-methyl-amine], the figures for the inhibition constant Ki at Rat SERT, on human SERT and on human H3 receptor [1] were 2.1 nM, 27 nM and 14 nM, respectively.
In the case of `CNCc1cc(C#CCCN2CCN(C(C)C)CC2)ccc1Oc1ccc(SC)cc1` [Example 10, [5-[4-(4-Isopropyl-piperazin-1-yl)-but-1-ynyl]-2-(4-methylsulfanyl-phenoxy)-benzyl]-methyl-amine], the values for the inhibition constant Ki at Rat SERT, at human SERT and at human H3 receptor [1] were 0.5 nM, 13 nM and 31 nM, respectively.
For `CNCc1cc(C#CCCNC2CC2)ccc1Oc1ccc(Cl)c(Cl)c1` [Example 15, Cyclopropyl-{4-[4-(3,4-dichloro-phenoxy)-3-methylaminomethyl-phenyl]-but-3-ynyl}-amine], in that order: 1.8 nM, 1.4 nM and 17 nM.
Take `CNCc1cc(C#CCCN(C2CC2)C2CC2)ccc1Oc1ccc(Cl)c(Cl)c1` [Example 17, N,N-Dicyclopropyl-{4-[4-(3,4-dichloro-phenoxy)-3-methylaminomethyl-phenyl]-but-3-ynyl}-amine]: the Ki on Rat SERT is 40 nM; at human H3 receptor [1] it was 100 nM.
Turning to `CNCc1cc(C#CCCN2CCOCC2)ccc1Sc1ccc(Cl)cc1` [Example 31, [2-(4-Chloro-phenylsulfanyl)-5-(4-morpholin-4-yl-but-1-ynyl)-benzyl]-methyl-amine], the figures for the Ki on Rat SERT and at human H3 receptor [1] were 1 nM and 32 nM, respectively.
On to `CNCc1cc(CCCCN2CCSCC2)ccc1Oc1ccc(SC)cc1` [Example 34, Methyl-[2-(4-methylsulfanyl-phenoxy)-5-(4-thiomorpholin-4-yl-butyl)-benzyl]-amine], for which the inhibition constant Ki was 0.9 nM at Rat SERT, 1.9 nM on human SERT and 9.7 nM on human H3 receptor [1].
As for `Clc1ccc(Oc2ccc(C#CCCN3CCOCC3)cc2CNC2CC2)cc1` [Example 22, [2-(4-Chloro-phenoxy)-5-(4-morpholin-4-yl-but-1-ynyl)-benzyl]-cyclopropyl-amine], the Ki on Rat SERT turned out to be 5 nM; on human H3 receptor [1], 10 nM.
`CNCc1cc(C#CCCN2CCOCC2)ccc1Oc1ccc(C)nc1` [Example 24, Methyl-[2-(6-methyl-pyridin-3-yloxy)-5-(4-morpholin-4-yl-but-1-ynyl)-benzyl]-amine]: the Ki on Rat SERT came out at 1.9 nM; at human SERT it was 5 nM; at human H3 receptor [1], 4 nM.
For `CNCc1cc(C#CCCN(C)C2CC2)ccc1Oc1ccc(Cl)c(Cl)c1` [Example 18, Cyclopropyl-{4-[4-(3,4-dichloro-phenoxy)-3-methylaminomethyl-phenyl]-but-3-ynyl}-methyl-amine], the values for the Ki on Rat SERT, at human SERT and on human H3 receptor [1] were 6.4 nM, 5.9 nM and 9.7 nM, respectively.
On to `CNCc1cc(C#CCCN2CCOCC2)ccc1Oc1cccnc1` [Example 21, Methyl-[5-(4-morpholin-4-yl-but-1-ynyl)-2-(pyridine-3-yloxy)-benzyl]-amine], for which the Ki worked out at 7 nM on Rat SERT and 2 nM on human H3 receptor [1].
Take `CNCc1cc(C#CCCN2CCCN(C(C)C)CC2)ccc1Oc1ccc(SC)cc1` [Example 20, [5-[4-(4-Isopropyl-[1,4]diazepan-1-yl)-but-1-ynyl]-2-(4-methylsulfanyl-phenoxy)-benzyl]-methyl-amine]: the Ki was 0.7 nM on Rat SERT, 3.6 nM at human SERT and 93 nM on human H3 receptor [1].
Turning to `CNCc1cc(C#CCCN2CCN(C3CC3)CC2)ccc1Oc1ccc(SC)cc1` [Example 13, [5-[4-(4-Cyclopropyl-piperazin-1-yl)-but-1-ynyl]-2-(4-methylsulfanyl-phenoxy)-benzyl]-methyl-amine], the inhibitory constant (Ki) at Rat SERT was found to be 2 nM; at human SERT it was 3.5 nM; on human H3 receptor [1] it was 52 nM.
Take `CSc1ccc(Oc2ccc(C#CCCN3CCCCC3)cc2CN(C)C(=O)OC(C)(C)C)cc1` [Example 35, Methyl-[2-(4-methylsulfanyl-phenoxy)-5-(4-piperidin-1-yl-but-1-ynyl)-benzyl]-carbamic acid tert-butyl ester]: the inhibition constant Ki stood at 24 nM at Rat SERT and 46 nM at human H3 receptor [1].
As for `CNCc1cc(CCCCN2CCN(C3CC3)CC2)ccc1Oc1ccc(SC)cc1` [Example 32, [5-[4-(4-Cyclopropyl-piperazin-1-yl)-butyl]-2-(4-methylsulfanyl-phenoxy)-benzyl]-methyl-amine], the Ki is 0.6 nM at Rat SERT, 2 nM on human SERT and 4.7 nM at human H3 receptor [1].
